Target: T1, NL20 human bronchial epithelial cells expressing human Z-AAT (Homo sapiens, UniProt P01009, E366K)
T1 construct: expressed in transfected cells; host or cells: NL20 human bronchial epithelial cells (NL20-SI line, doxycycline added)
Assay: AAT Function Assay (MSD Assay NL20-SI Cell Line)
Format: cell-based
Settings: functionally active AAT (AAT-hNE complex) in supernatant of NL20 cells expressing human Z-AAT; read-out: NL20 Func. (EC50)
Procedure: A. AAT Function Assay (MSD Assay NL20-SI Cell Line)
Alpha-1 antitrypsin (AAT) is a SERPIN (serine protease inhibitor) that inactivates enzymes by binding to them covalently. This assay measured the amount of functionally active AAT in a sample in the presence of the disclosed compounds 1-215 by determining the ability of AAT to form an irreversible complex with human neutrophil Elastase (hNE). In practice, the sample (cell supernatant, blood sample, or other) was incubated with excess hNE to allow AAT-Elastase complex to be formed with all functional AAT in the sample. This complex was then captured to a microplate coated with an anti-AAT antibody. The complex captured to the plate was detected with a labeled anti-Elastase antibody and quantitated using a set of AAT standards spanning the concentration range present in the sample. Meso Scale Discovery (MSD) plate reader, Sulfo-tag labeling, and microplates were used to provide high sensitivity and wide dynamic range.
• 1. Harvest NL20 human bronchial epithelial cells expressing human Z-AAT in OptiMEM™ containing Pen/Strep (P/S) • 2. Seed at 16,000 cells/well in 30 μL (384 well plate) • 3. Centrifuge plates briefly up to speed (1200 rpm) and place into 37° C. incubator overnight Day 2: Compound Addition and Coating Plates with Capture Antibody Compound Addition: • 1. Dispense 40 μL of OptiMEM™ (P/S) with doxycycline (1:1000 stock=0.1 μM final) to each well of the compound plate using a multidrop Combi in hood • 2. Remove cell plate from incubator, flip/blot and take immediately to Bravo to transfer compounds • 3. Return plates to incubator overnight Coat MSD Plates • 1. Dilute capture antibody (Polyclonal Goat anti-AAT) to 5 μg/mL (1:200) in PBS (no BSA). • 2. Dispense 25 μL of diluted capture antibody into all wells of MSD 384-well High Bind plate using the Multidrop equipped with a standard cassette. • 3. Incubate overnight at 4° C. Prepare Blocker A (BSA) Solutions • 1. Prepare solution of 5% MSD Blocker A (BSA) following the manufacturer's instructions. • 2. Further dilute the 5% MSD Blocker A in PBS to 1% (Blocker A) as needed. Day 3: Run MSD Assay
Block Plates • 1. Wash plate 1× with 50 μL Wash buffer (PBS+0.5% Tween 20), and adds 35 μL 5% Block A buffer to block non-specific binding on washer dispenser • 2. Rotate plates on shaker for 1 hour at 600 rpm
Prepare M-AAT Standards • 1. Dilute M-AAT stock to 1.6 μg/mL in 1% BSA Blocker A (Stock in −70° C.); then prepare 12×1:2 serial dilutions in 1% Blocker A • 2. The top starting final concentration on MSD plate is 320 ng/mL. These dilutions correspond to a final concentration of 320, 160, 80, 40, 20, 10, 5, 2.5, 1.25, 0.625, 0.312, 0.156 ng/mL.
Dilution Plate • 1. Add 80 μL of 1% Assay buffer to all wells except columns 1/24 (standards) with Multidrop Combi • 2. Add diluted standards to columns 1 and 24 • 3. Centrifuge dilution plates 1200 rpm briefly
Cell Plate • 1. Aspirate columns which will have the standards from the cell plates in the hood using 16-pin aspirator
Prepare Human Neutrophil Elastase (hNE) • 1. Prepare 1 μg/mL Human Neutrophil Elastase by diluting in 1% Blocker A. • a. Small 100 μg vial—add 1 mL PBS (100 μg/mL) • i. This can then be diluted 1:100 in 1% Assay Buffer for a final 1 μg/mL concentration
MSD—Add hNE (20 μL/well) • 1. After the MSD plate has blocked for at least 1 hour, wash plate 1× with 50 μL Wash buffer (PBS+0.5% Tween 20) and then add 20 μL hNE to each well
Bravo—Cell Plate—Dilution Plate—MSD Plate
Using the Bravo aspirate 10 μL from the cell plate, transfer to the dilution plate (9-fold dilution)
• 1. Mix 25 μL 3×, then aspirate 5 μL, transfer to MSD plate (5-fold dilution) • 2. Mix 10 μL 3×. Total dilution is 45 fold. • 3. Shake plates at 600 rpm for 1.5 hours
Add Functional detection hNE antibody • 1. Wash plate 1× with wash buffer • 2. […]

T1 sequence (P01009 25-418 E366K): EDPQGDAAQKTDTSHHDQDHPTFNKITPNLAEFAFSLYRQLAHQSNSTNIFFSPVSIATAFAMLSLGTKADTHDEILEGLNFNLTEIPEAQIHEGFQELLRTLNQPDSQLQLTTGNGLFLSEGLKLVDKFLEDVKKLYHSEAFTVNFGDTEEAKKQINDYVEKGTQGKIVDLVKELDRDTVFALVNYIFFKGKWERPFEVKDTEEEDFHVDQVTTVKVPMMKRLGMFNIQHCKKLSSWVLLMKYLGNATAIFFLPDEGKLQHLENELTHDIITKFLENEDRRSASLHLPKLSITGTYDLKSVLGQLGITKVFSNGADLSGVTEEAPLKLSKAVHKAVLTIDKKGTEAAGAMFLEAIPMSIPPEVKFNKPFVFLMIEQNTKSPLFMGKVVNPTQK

| SMILES | EC50 [nM] |
| --- | --- |
| Cc1cc(-n2c(C(C)C)c(C3CC(C(=O)O)C3)c3cc4[nH]ncc4cc32)ccc1F (mixture of isomers) [Compound 18] | < 1160 |
| Cc1cc(-n2c(C(C)C)c(C3CC(CC(=O)O)C3)c3cc4[nH]ncc4cc32)ccc1F (mixture of isomers) [Compound 22] | < 1160 |
| Cc1cc(-n2c(C(C)C)c(C3CC(C)(C(=O)O)C3)c3cc4[nH]nc(C)c4cc32)ccc1F (mixture of isomers) [Compound 55, 3-[5-(4-fluoro-3-methyl-phenyl)-6-isopropyl-3-methyl-1H-pyrrolo[2,3-f]indazol-7-yl]-1-methyl-cyclobutanecarboxylic Acid] | < 1160 |
| O=C(O)C1CC(Cc2c(C3CCOCC3)n(-c3ccc(F)c(Cl)c3)c3cc4cn[nH]c4cc23)C1 (mixture of isomers) [Compound 79] | 1160 to 3000 |
| O=C(O)C1CCC(Cc2c(C3CCOCC3)n(-c3ccc(F)c(Cl)c3)c3cc4cn[nH]c4cc23)CC1 (mixture of isomers) [Compound 83] | 1160 to 3000 |
| O=C(O)CC1CC(c2c(C3CCOCC3)n(-c3ccc(F)c(Cl)c3)c3cc4cn[nH]c4cc23)C1 (mixture of isomers) [Compound 85] | 1160 to 3000 |
| Cc1cc(-n2c(C3CCOCC3)c(C3CC(CC(=O)O)C3)c3cc4[nH]ncc4cc32)ccc1F (mixture of isomers) [Compound 93] | 1160 to 3000 |
| Cc1cc(-n2c(C3CCOCC3)c(CC3CC(C(=O)O)C3)c3cc4[nH]ncc4cc32)ccc1F (mixture of isomers) [Compound 96] | < 1160 |
| O=C(O)C1CC2(C1)CC(c1c(C3C[C@H]4CC[C@@H](C3)O4)n(-c3ccc(F)cc3)c3cc4cn[nH]c4cc13)C2 (mixture of isomers) [Compound 122, 6-[5-(4-fluorophenyl)-6-(8-oxabicyclo[3.2.1]octan-3-yl)-1H-pyrrolo[2,3-f]indazol-7-yl]spiro[3.3]heptane-2-carboxylic Acid] | 1160 to 3000 |
| COCC(C)(C)c1c(C2CC(C)(C(=O)O)C2)c2cc3[nH]ncc3cc2n1-c1ccc(F)cc1 (mixture of isomers) [Compound 176] | < 1160 |
| CCOC(=O)[C@@H]1C[C@@H]1c1c(C(C)C)n(-c2ccc(F)c(C)c2)c2cc3cn[nH]c3cc12 (racemic) [Compound 15, ethyl (1R,2S)-2-[5-(4-fluoro-3-methyl-phenyl)-6-isopropyl-1H-pyrrolo[2,3-f]indazol-7-yl]cyclopropanecarboxylate] | > 3000 |
| Cc1cc(-n2c(C(C)C)c(CC(C)C(=O)O)c3cc4[nH]ncc4cc32)ccc1F (racemic) [Compound 19] | < 1160 |
| Cc1cc(-n2c(C(C)C)c(C3CC4(CC(C(=O)O)C4)C3)c3cc4[nH]ncc4cc32)ccc1F (racemic) [Compound 24] | < 1160 |
| CC(C)c1c(C2CC3(CC(C(=O)O)C3)C2)c2cc3[nH]ncc3cc2n1-c1ccc(F)cc1 (racemic) [Compound 34, 6-[5-(4-fluorophenyl)-6-isopropyl-1H-pyrrolo[2,3-f]indazol-7-yl]spiro[3.3]heptane-2-carboxylic acid] | < 1160 |
| Cc1cc(-n2c(C(C)C)c(C3CC4(CC(C(=O)O)C4)C3)c3cc4[nH]nc(C)c4cc32)ccc1F (racemic) [Compound 56, 6-[5-(4-fluoro-3-methyl-phenyl)-6-isopropyl-3-methyl-1H-pyrrolo[2,3-f]indazol-7-yl]spiro[3.3]heptane-2-carboxylic acid] | 1160 to 3000 |
| Cc1cc(-n2c(C(C)C)c(C3CC4(CC(C(=O)O)C4)C3)c3c(F)c4[nH]nc(C)c4cc32)ccc1F (racemic) [Compound 59, 6-[8-fluoro-5-(4-fluoro-3-methyl-phenyl)-6-isopropyl-3-methyl-1H-pyrrolo[2,3-f]indazol-7-yl]spiro[3.3]heptane-2-carboxylic Acid] | < 1160 |
| O=C(O)C1CC2(C1)CC(c1c(C3CCOCC3)n(-c3ccc(F)c(Cl)c3)c3cc4cn[nH]c4cc13)C2 (racemic) [Compound 76] | < 1160 |
| COC(=O)C1CC2(C1)CC(c1c(C3CCOCC3)n(-c3ccc(F)c(C)c3)c3cc4cn[nH]c4cc13)C2 (racemic) [Compound 89] | > 3000 |
| Cc1cc(-n2c(C3CCOCC3)c(C3CC4(CC(C(=O)O)C4)C3)c3cc4[nH]ncc4cc32)ccc1F (racemic) [Compound 90] | < 1160 |
| Cc1cc(-n2c(C3CCOCC3)c(CC(C)C(=O)O)c3cc4[nH]ncc4cc32)ccc1F (racemic) [Compound 105] | 1160 to 3000 |
| O=C(O)C1CC2(C1)CC(c1c(C3CCOCC3)n(-c3ccc(F)cc3)c3cc4cn[nH]c4cc13)C2 (racemic) [Compound 108, 6-(5-(4-fluorophenyl)-6-(tetrahydro-2H-pyran-4-yl)-1,5-dihydropyrrolo[2,3-f]indazol-7-yl)spiro[3.3]heptane-2-carboxylic Acid] | 1160 to 3000 |
| O=C(O)C1CC(Cc2c(C3CCOCC3)n(-c3ccc(F)cc3)c3cc4cn[nH]c4cc23)C1 (racemic) [Compound 116] | > 3000 |
| O=C1CCCC(c2c(C3CCOCC3)n(-c3ccc(F)cc3)c3cc4cn[nH]c4cc23)C1 (racemic) [Compound 121, 3-[5-(4-fluorophenyl)-6-tetrahydropyran-4-yl-1H-pyrrolo[2,3-f]indazol-7-yl]cyclohexanone] | 1160 to 3000 |
| Cc1cc(-n2c(C3CCOCC3)c(C3CC4(CC(C(=O)O)C4)C3)c3cc4[nH]nc(C)c4cc32)ccc1F (racemic) [Compound 126, 6-[5-(4-fluoro-3-methyl-phenyl)-3-methyl-6-tetrahydropyran-4-yl-1H-pyrrolo[2,3-f]indazol-7-yl]spiro[3.3]heptane-2-carboxylic acid] | 1160 to 3000 |
| Cc1n[nH]c2cc3c(C4CC5(CC(C(=O)O)C5)C4)c(C4CCOCC4)n(-c4ccc(F)c(F)c4)c3cc12 (racemic) [Compound 129, 6-[5-(3,4-difluorophenyl)-3-methyl-6-tetrahydropyran-4-yl-1H-pyrrolo[2,3-f]indazol-7-yl]spiro[3.3]heptane-2-carboxylic Acid] | > 3000 |
| O=C(O)C1CC2(C1)CC(c1c(C3CCOCC3)n(-c3ccc(F)cc3)c3cc4cn[nH]c4c(F)c13)C2 (racemic) [Compound 135, 6-[8-fluoro-5-(4-fluorophenyl)-6-tetrahydropyran-4-yl-1H-pyrrolo[2,3-f]indazol-7-yl]spiro[3.3]heptane-2-carboxylic acid] | < 1160 |
| O=C(O)C1CC2(C1)CC(c1c(C3CCOC3)n(-c3ccc(F)cc3)c3cc4cn[nH]c4cc13)C2 (racemic) [Compound 140, 6-[5-(4-fluorophenyl)-6-tetrahydrofuran-3-yl-1H-pyrrolo[2,3-f]indazol-7-yl]spiro[3.3]heptane-2-carboxylic acid] | > 3000 |
| Cc1cc(-n2c(C(C)C)c(C3CC3C(=O)O)c3cc4[nH]ncc4cc32)ccc1F (single isomer, unassigned) [Compound 13, 2-[5-(4-fluoro-3-methyl-phenyl)-6-isopropyl-1H-pyrrolo[2,3-f]indazol-7-yl]cyclopropanecarboxylic acid] | < 1160 |
| Cc1cc(-n2c(C(C)C)c(C3CC3C(=O)O)c3cc4[nH]ncc4cc32)ccc1F (single isomer, unassigned) [Compound 14, 2-[5-(4-fluoro-3-methyl-phenyl)-6-isopropyl-1H-pyrrolo[2,3-f]indazol-7-yl]cyclopropanecarboxylic acid] | < 1160 |

From patent US11623924B2, “Modulators of alpha-1 antitrypsin” (Vertex Pharmaceuticals Incorporated, priority 2018, dated 2023)
